Laboratory results taken from US7208495B2, “Benzo-fused 5-membered hetrocycle compounds, process for preparation of the same, and use thereof” (Takeda Pharmaceutical Company Limited, priority 2001, dated 2007).

Key:
[1] = tested on: mixed rat glia culture; experiment: Neurogenesis enhancing activity in mixed rat glia culture (β III-tubulin positive cell area); type: cell-based; conditions: compound 1 μM; serum-free medium, five days differentiation; β III-tubulin positive cell area by image analysis versus control without compound
Text: Neurogenesis Enhancing Activity in Mixed Rat Glia Culture
Neonatal of SD rats were purchased from Japan Charles River Co, Ltd. A […] nylon cell strainer was purchased from Beckton-Dickinson. DMEM/F12 culture medium, antibiotic, and N2 additive were purchased from Life Technology Corp. Anti β III-tubulin antibody was purchased from Sigma Corp. DAKO EnVision+/HRP kit was purchased from Dako Japan Corp. As for other reagents, commercially available guaranteed reagents were used.
Rat mixed glia culture was prepared from the cerebrums of 2 day old neonatal SD rat. The neonates were anaesthetised with ice cooling, were decapitated, and their brains were quickly removed. The meninges were carefully removed, and the cerebral cortex was separated therefrom. The cerebral cortex was passed through 40 micron nylon mesh, and it was physically dissociated. Cell suspension was then layered in a cell dispersion liquid on serum, and the cells were fractionated by non-continuous density gradient centrifugation. The precipitate was washed twice with growth culture medium (10% FBS and antibiotic. added to DMEM/F12), and it was dispersed. Mixed glia culture was seeded and inoculated onto a collagen coated 96 well multiplate with 1×10^5 cells per well, and was cultured for five days.
After culturing for five days, mixed glia culture was used in a differentiation assay. Growth culture medium was substituted with a serum-free medium (N2 supplememt and antibiotic added to DMEM/F12), and test compound was added simultaneously. After differentiation for five days, culture was fixed with 4% paraformaldehyde, and was immunostained with the mouse anti β III-tubulin monoclonal antibody and the DAKO EnVison+/HRP kit.
β III-tubulin positive cell area were quantified by image analysis, and was compared to when compound (I) was added (1 μM) and when it was not added (control).

[2] = tested on: human neuroblastoma SK-N-SH cells; experiment: Cytoprotection activity against PI-3 kinase inhibitor LY-294002 in human neuroblastoma SK-N-SH cells; type: cell-based; conditions: test compound 1.0 μM with LY-294002 30 μM, Alamarblue reduction one day after start, (A−B)/(C−B)×100
Experimental: Cytoprotection activity against a PI-3 kinase inhibitor LY-294002 in human neuroblastoma SK-N-SH cells.
Human neuroblastoma SK-N-SH cells were purchased from American Type Cell Culture (ATCC). DMEM/F-12 culture medium and potassium/magnesium-free phosphate buffer saline (PBS(−)) were purchased from Nikken Biomedical Co., Ltd., N2 additives and EDTA solution were purchased from GIBCO BRL Company, fetal bovine serum (FCS) and a mixed solution of penicillin (5000 U/ml) and streptomycin (5 mg/ml) were purchased from BioWhittaker Inc., Alamarblue™ reagent was purchased from Wako Pure Chemical Industries Ltd., culture flasks were purchased from Falcon Company, collagen-coated 96-well multi-plates were purchased from Iwaki Glass Co., Ltd., and LY-294002 was purchased from Alexis Biochemicals, respectively. As for other reagents, commercially available guaranteed reagents were used.
A DMEM/F-12 culture medium which contains 5% FCS, 0.5% N2, 10 mM HEPES, and a 1% mixed solution of penicillin (5000 U/ml) and streptomycin (5 mg/ml) was used to subculture SK-N-SH cells in a carbon dioxide incubator under a mixed gas atmosphere consisting of 10% carbon dioxide/90% air. After being cultivated to a sub-confluent stage, the cells were detached with a PBS(−) solution containing 2.5 mM EDTA and seeded onto collagen-coated 96-well multi-plates in the proportion of 10^4/100 μL well. After cultivation for 24 hours, the cultured cells were used in a cytotoxic test.
[…] of the culture medium of the SK-N-SH cells that were cultured as described above on the collagen-coated 96-well multi-plates was removed, and 40 μL each of LY-294002 having a final concentration of 30 μM and a test compound having a final concentration that was adjusted to be 1.0 μM were simultaneously added to initiate the cytotoxicity test. Note that each test compound used was diluted to a concentration of 10 mM with dimethyl sulfoxide, and the LY-294002 used was diluted to a concentration of 100 mM with dimethyl sulfoxide.
The survival activity of neural cells that were still living one day after the initiation of the cytotoxicity test was estimated by the reductive activity of Alamarblue™ reagent as an index. 20 μL of the culture medium was removed, 20 μL of Alamarblue™ reagent was added, and the amount of Alamarblue™ reagent reduced for 4 hours incubation was calorimetrically measured with a plate reader (WAKO SPECTRAMAX 250 Microplate Reader) (measurement wave length 570 nm, reference wave length 600 nm).
Cytoprotection activity was calculated by means of the following equation. Cytoprotection activity a test compound=(A−B)/(C−B)×100 (%) • A: The survival activity of a group consisting of a test compound and LY-294002 • B: The survival activity of a group consisting of LY-294002 • C: The survival activity of a control group (Results)
At least 4 wells for every 1 dose of a test compound was used to determine the cytoprotection activity of a test compound.

SMILES	Differentiation/nacent promotion activity (%/control) [1]	Cell protection activity (%) [2]
COc1ccc(N2CCN(c3c(C)c(C)c4c(c3C)C(c3ccc(C)cc3)C(C)(C)O4)CC2)cc1 (stereo not shown) [Example 46, 1-(2,2,4,6,7-pentamethyl-3-(4-methylphenyl)-2,3-dihydro-1-benzofuran-5-yl)-4-(4-methoxyphenyl)piperazine]	842 %/control	39.5%
COc1ccc(C2CCN(c3c(C)c(C)c4c(c3C)C(N3CCc5ccccc5CC3)C(C)(C)O4)CC2)cc1OC (stereo not shown) [Example 92, 3-(5-(4-[3,4-dimethoxyphenyl]piperidino)-2,2,4,6,7-pentamethyl-2,3-dihydro-1-benzofuran-3-yl)-2,3,4,5-tetrahydro-1H-3-benzoazepin]	–	29.6%
COc1ccc(N2CCN(c3c(C)c(C)c4c(c3C)C(N3CCCCC3)C(C)(C)O4)CC2)cc1 (stereo not shown) [Example 59, 4-(4-methoxyphenyl)-1-(2,2,4,6,7-pentamethyl-3-piperidino-2,3-dihydro-1-benzofuran-5-yl)piperazine]	–	23.9%
COc1ccc(C2CCN(c3c(C)c(C)c4c(c3C)C(c3ccc(C)cc3)C(C)(C)O4)CC2)cc1OC (stereo not shown) [Example 79, 4-(3,4-dimethoxyphenyl)-1-(3-(4-methylphenyl)-2,2,4,6,7-pentamethyl-2,3-dihydro-1-benzofuran-5-yl)piperidine]	–	31.3%
COc1ccc(N2CCN(c3c(C)c(C)c4c(c3C)C(O)(c3ccc(C)cc3)C(C)(C)O4)CC2)cc1 (stereo not shown) [Example 33, 1-(3-hydroxy-2,2,4,6,7-pentamethyl-3-(4-methylphenyl)-2,3-dihydro-1-benzofuran-5-yl)-4-(4-methoxyphenyl)piperazine]	448 %/control	24.9%
COc1ccc(C2CCN(c3c(C)c(C)c4c(c3C)[C@@H](c3ccc(C)cc3)C(C)(C)O4)CC2)cc1OC [Example 32, (3R)-4-(3,4-dimethoxyphenyl)-1-(2,2,4,6,7-pentamethyl-3-(4-methylphenyl)-2,3-dihydro-1-benzofuran-5-yl)piperidine]	371 %/control	35.6%
COc1ccc(N2CCN(c3c(C)c(C)c4c(c3C)C(Nc3ccccc3)C(C)(C)O4)CC2)cc1 (stereo not shown) [Example 58, N-phenyl-5-(4-(4-methoxyphenyl)piperazin-1-yl)-2,2,4,6,7-pentamethyl-2,3-dihydro-1-benzofuran-3-amine]	–	39.2%
